System: 349418-098-R-PDC complex spheroid viability
Assay: Anticancer human tumor 349418-098-R-PDC patient-derived lung adenocarcinoma cell line growth inhibition [RAS]
Conditions: for IC50: curve of first compound; for viability, T/C: stronger effect = lower value
Source text: RAS pathway inhibitors in Combinations in Complex Spheroids
A high-throughput screen of multi-cell type tumor spheroids was designed to identify active combinations of RAS pathway inhibitors and targeted small molecules. Complex spheroids include a stromal component modeled by human endothelial cells (HUVEC) and fibroblasts modeled by human mesenchymal stem cells (MSCs). The concentration ranges selected for each drug and investigational agent were based upon clinically achievable concentrations if the clinical Cmax of the agent was known.
Compounds. The drugs and investigational agents: abemaciclib (NSC768073), cobimetinib (NSC768068), divarasib (GDC6063, NSC841802), docetaxel (NSC628503), GDC-1971 (RLY-1971, NSC841576), gemcitabine (NSC613327), inavolisib (NSC800729), ipatasertib (NSC767898), KB-0742 (NSC834161), MRTX-1133 (NSC836407), osimertinib (NSC779217), RMC-4630 (NSC839698), RMC-6236 (NSC851965), RMC-6291 (NSC852671), Ro-3306 (NSC812927), sapanisertib (NSC764658), SN-38 (NSC673596), staurosporine (NSC755774), SY5609 (NSC837396), and tovorafenib (DAY101, NSC766906), were obtained from the National Cancer Institute (NCI) Developmental Therapeutics Program Chemical Repository. The FDA-approved anticancer drug set is available from the NCI Developmental Therapeutics Program. […] The stock solutions were prepared in dimethyl sulfoxide (DMSO, Sigma-Aldrich, St. Louis, MO, cat. D2650) at 800-fold the tested concentration and stored at -70 degrees C prior to their use. All drugs and investigational agents were tested over a range starting from a high concentration at or near the clinical Cmax and decreasing in half-log increments. If the clinical Cmax for an agent had not been determined, the highest concentration tested was 10 microM.
Cell Culture. All cells were maintained in an incubator at 37 degrees C and 5% CO2 with 95% humidity. The PDC lines were cultured according to standard operating procedures established by the NCI PDMR. All PDCs were thawed and cultured in Matrigel-coated flasks prepared with a working solution of 1X Ham's F-12 nutrient mix, without supplementation (Invitrogen, Waltham, MA, cat. 11765054), 100 U/mL penicillin-streptomycin (Invitrogen, cat. 15140122), and 2.5% Matrigel (Corning Inc., Corning, NY, cat. 354248) for the first three passages. The 362531-283-R-J2-PDC and 782815-120-R-J1-PDC lines were cultured in 6C/Colon 1B media, which includes advanced DMEM/F-12 (Thermo Fisher Scientific, cat. 12634028), 10 mM HEPES (Thermo Fisher Scientific, cat. 15630080), 1X GlutaMAX supplement (Thermo Fisher Scientific, cat. 35050061), 0.1 mg/mL primocin (InvivoGen, San Diego, CA, cat. ant-pm-2), 10% defined fetal bovine serum, heat inactivated (HyClone Laboratories Inc., Logan, UT, cat. SH30070.03HI), 50% L-WRN conditioned media (ATCC, cat. CRL-3276), 1.25 mM N-Acetyl-L-cysteine (Sigma-Aldrich, cat. A9165), 10 mM nicotinamide (Sigma-Aldrich, cat. N0636), 1X B-27 supplement (Thermo Fisher Scientific, cat. 17504044), 1X N-2 supplement (Thermo Fisher Scientific, cat. 17502048), 50 ng/mL human EGF (Thermo Fisher Scientific, cat. PHG0311), and 10 microM Y-27632 dihydrochloride (Tocris Bioscience, cat. 1254). The K12877-001-R-J1-PDC line was cultured in 6I media, which includes all 6C/Colon 1B media plus 10 ng/mL human FGF-10 (PeproTech, cat. 100-26), 1 ng/mL human FGF-2 (PeproTech, cat. 100-18B), 1 µM prostaglandin E2 (Tocris Bioscience, cat. 2296), […] hydrocortisone (Sigma-Aldrich, cat. H4001), and […] bovine insulin (Sigma-Aldrich, cat. I6634). The K86415-001-R-J1-PDC line was cultured in 6D media, which includes all 6C/Colon 1B media components minus the L-WRN conditioned media. The 485176-168-R4-J1-PDC was cultured in PANC media, which includes all 6C/Colon 1B media plus 100 ng/mL human FGF-10 (PeproTech, cat. 100-26), 500 nM SB-431542 (Selleckchem, cat. S1067), and 10 nM gastrin (Tocris Bioscience, cat. 3006). […]
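Note: spheroids exposed to compound for seven days before viability readout.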

CCc1c2c(nc3ccc(O)cc13)-c1cc3c(c(=O)n1C2)COC(=O)[C@]3(O)CC + C#Cc1c(F)ccc2cc(O)cc(-c3ncc4c(N5CC6CCC(C5)N6)nc(OCC56CCCN5CC(F)C6)nc4c3F)c12
IC50 (second compound 0.0316 µM): 1.41 nM
IC50 (second compound 0.1 µM): 1.76 nM
IC50 (second compound 0.316 µM): 1.76 nM
IC50 (second compound 1 µM): 1.96 nM
IC50 (second compound 3.16 µM): 1.75 nM
IC50 (second compound 10 µM): 1.18 nM
viability, T/C (second compound 0.0316 µM, first compound 0.000949 µM): 58.9%
viability, T/C (second compound 0.0316 µM, first compound 0.003 µM): 33.1%
viability, T/C (second compound 0.0316 µM, first compound 0.00949 µM): 10.8%
viability, T/C (second compound 0.0316 µM, first compound 0.03 µM): 4.93%
viability, T/C (second compound 0.0316 µM, first compound 0.0949 µM): 3.89%
viability, T/C (second compound 0.0316 µM, first compound 0.3 µM): 2.53%
viability, T/C (second compound 0.1 µM, first compound 0.000949 µM): 74.7%
viability, T/C (second compound 0.1 µM, first compound 0.003 µM): 28.7%
viability, T/C (second compound 0.1 µM, first compound 0.00949 µM): 10.6%
viability, T/C (second compound 0.1 µM, first compound 0.03 µM): 5.19%
viability, T/C (second compound 0.1 µM, first compound 0.0949 µM): 4.46%
viability, T/C (second compound 0.1 µM, first compound 0.3 µM): 2.82%
viability, T/C (second compound 0.316 µM, first compound 0.000949 µM): 70.9%
viability, T/C (second compound 0.316 µM, first compound 0.003 µM): 32.1%
viability, T/C (second compound 0.316 µM, first compound 0.00949 µM): 8.77%
viability, T/C (second compound 0.316 µM, first compound 0.03 µM): 4.98%
viability, T/C (second compound 0.316 µM, first compound 0.0949 µM): 3.85%
viability, T/C (second compound 0.316 µM, first compound 0.3 µM): 2.45%
viability, T/C (second compound 1 µM, first compound 0.000949 µM): 81%
viability, T/C (second compound 1 µM, first compound 0.003 µM): 32%
viability, T/C (second compound 1 µM, first compound 0.00949 µM): 9.89%
viability, T/C (second compound 1 µM, first compound 0.03 µM): 6.27%
viability, T/C (second compound 1 µM, first compound 0.0949 µM): 4.67%
viability, T/C (second compound 1 µM, first compound 0.3 µM): 2.58%
viability, T/C (second compound 3.16 µM, first compound 0.000949 µM): 65.8%
viability, T/C (second compound 3.16 µM, first compound 0.003 µM): 36.2%
viability, T/C (second compound 3.16 µM, first compound 0.00949 µM): 10.1%
viability, T/C (second compound 3.16 µM, first compound 0.03 µM): 5.33%
viability, T/C (second compound 3.16 µM, first compound 0.0949 µM): 3.62%
viability, T/C (second compound 3.16 µM, first compound 0.3 µM): 2.21%
viability, T/C (second compound 10 µM, first compound 0.000949 µM): 57.9%
viability, T/C (second compound 10 µM, first compound 0.003 µM): 17.1%
viability, T/C (second compound 10 µM, first compound 0.00949 µM): 4.95%
viability, T/C (second compound 10 µM, first compound 0.03 µM): 2.94%
viability, T/C (second compound 10 µM, first compound 0.0949 µM): 1.84%
viability, T/C (second compound 10 µM, first compound 0.3 µM): 0.77%
